Results taken from PubChem BioAssay (NCI).
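Test compounds were applied to cells in 96-well plates for 48 hours at 5 doses. TGI: concentration producing complete growth inhibition.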

Experiments:
Experiment in all cases: growth of human tumour cells (NCI), 48 h
DLD-1 colon = system: DLD-1 colon
DU-145 prostate = system: DU-145 prostate
HCT-15 colon = system: HCT-15 colon
HOP-92 NSCLC = system: HOP-92 NSCLC
KM12 colon = system: KM12 colon
LXFL 529 NSCLC = system: LXFL 529 NSCLC
MCF7 breast = system: MCF7 breast
NCI-H23 lung = system: NCI-H23 lung
SK-MEL-2 melanoma = system: SK-MEL-2 melanoma
NCI/ADR-RES ovarian = system: NCI/ADR-RES ovarian

Row | SMILES | TGI (DLD-1 colon) [µM] | TGI (DU-145 prostate) [µM] | TGI (HCT-15 colon) [µM] | TGI (HOP-92 NSCLC) [µM] | TGI (KM12 colon) [µM] | TGI (LXFL 529 NSCLC) [µM] | TGI (MCF7 breast) [µM] | TGI (NCI-H23 lung) [µM] | TGI (SK-MEL-2 melanoma) [µM] | TGI (NCI/ADR-RES ovarian) [µM]
1 | COc1cc2c(c(OC)c1OC)-c1ccc(OC)c(=O)cc1C(NC(=O)c1ccc(N=[N+]=[N-])cc1)CC2 (stereo unspecified) | > 100 | 0.439 | 0.561 | 18.9 | 0.0786 | > 47.2 | > 100 | > 100 | – | –
2 | CCCCCCCCC/C=C1\CCC(CN2CCOCC2)C1=O (stereo unspecified) | 3.9 | 17.5 | 7.05 | 7.4 | 5.2 | 2.95 | – | 9.18 | 14.6 | –
3 | CSc1nc(NC2OCC(OC(C)=O)C(OC(C)=O)C2OC(C)=O)c(N=CC=Nc2c(NC3OCC(OC(C)=O)C(OC(C)=O)C3OC(C)=O)nc(SC)[nH]c2=O)c(=O)[nH]1 (stereo unspecified) | > 100 | > 100 | > 100 | > 100 | > 100 | > 100 | > 100 | > 100 | > 100 | > 100
